Assay results reported in PubChem BioAssay AID1963973 (Molecular Pharmacology Branch, DTP, NCI, 2024).

System: 883617-216-R-J1-PDC tumor spheroids, viability
Assay: Anticancer human tumor 883617-216-R-J1-PDC patient-derived bladder carcinoma cell line growth inhibition [PI3K]
Settings: spheroids with HUVEC and MSC; for IC50: curve of first compound; for viability, T/C: stronger effect = lower value
Description: Combinatorial screen of targeted agents with the PI3K inhibitors inavolisib, alpelisib, duvelisib, and copanlisib in multi-cell type tumor spheroids
A high-throughput screen of multi-cell type tumor spheroids was designed to identify active combinations of targeted small molecules and PI3K pathway inhibitors. Complex spheroids include a stromal component modeled by human endothelial cells (HUVEC) and fibroblasts modeled by human mesenchymal stem cells (MSCs). The concentration ranges selected for each drug and investigational agent were based upon clinically achievable concentrations if the clinical Cmax of the agent was known.
Compounds. The drugs and investigational agents: inavolisib (NSC800729), alpelisib (NSC765974), duvelisib (NSC772469), copanlisib (NSC816437), ipatasertib (NSC767898), afuresertib (NSC778305), talazoparib (NSC767125), sapanisertib (NSC764658), selumetinib (NSC741078), tovorafenib (DAY101, NSC766906), vemurafenib (NSC761431), ravoxertinib (NSC781343), sotorasib (NSC818433), MRTX1133 (NSC 836407), abemaciclib (NSC 768073), palbociclib (NSC758247), venetoclax (NSC 766270), SY5609 (NSC837396), enzalutamide (NSC755605), and darolutamide (NSC825331), were obtained from the National Cancer Institute (NCI) Developmental Therapeutics Program Chemical Repository. The FDA-approved anticancer drug set is available from the NCI Developmental Therapeutics Program. […] The stock solutions were prepared in dimethyl sulfoxide (DMSO, Sigma-Aldrich, St. Louis, MO, cat. D2650) at 800-fold the tested concentration and stored at -70 degrees C prior to their use. All drugs and investigational agents were tested over a range starting from a high concentration at or near the clinical Cmax and decreasing in half-log increments. If the clinical Cmax for an agent had not been determined, the highest concentration tested was 10 microM.
Cell Culture. All cells were maintained in an incubator at 37 degrees C and 5% CO2 with 95% humidity. The PDC lines were cultured according to standard operating procedures established by the NCI PDMR (https://pdmr.cancer.gov/sops/default.htm). All PDCs were thawed and cultured in Matrigel-coated flasks prepared with a working solution of 1X Ham's F-12 nutrient mix, without supplementation (Invitrogen, Waltham, MA, cat. 11765054), 100 U/mL penicillin-streptomycin (Invitrogen, cat. 15140122), and 2.5% Matrigel (Corning Inc., Corning, NY, cat. 354248) for the first three passages. The 354836-022-R-J1-PDC, 475296-252-R-J1-PDC, and 997726-040-R-J2-PDC lines were cultured in 6A media, which includes advanced DMEM/F-12 (Thermo Fisher Scientific, cat. 12634028), 10 mM HEPES (Thermo Fisher Scientific, cat. 15630080), 1X GlutaMAX supplement (Thermo Fisher Scientific, cat. 35050061), 0.1 mg/mL primocin (InvivoGen, San Diego, CA, cat. ant-pm-2), 10% defined fetal bovine serum, heat inactivated (HyClone Laboratories Inc., Logan, UT, cat. SH30070.03HI), 50% L-WRN conditioned media (ATCC, cat. CRL-3276), 1.25 mM N-Acetyl-L-cysteine (Sigma-Aldrich, cat. A9165), 10 mM nicotinamide (Sigma-Aldrich, cat. N0636), 1X B-27 supplement (Thermo Fisher Scientific, cat. 17504044), 1X N-2 supplement (Thermo Fisher Scientific, cat. 17502048), and 10 microM Y-27632 dihydrochloride (Tocris Bioscience, Bristol, United Kingdom, cat. 1254). The 624824-186-R-J2-PDC line was cultured in 6C/Colon 1B media, which includes all 6A media components plus 50 ng/mL human EGF recombinant protein (Thermo Fisher Scientific, cat. PHG0311). […]

[1] = second compound 0.00316 µM, first compound 0.0316 µM
[2] = second compound 0.00316 µM, first compound 0.1 µM
[3] = second compound 0.00316 µM, first compound 0.316 µM
[4] = second compound 0.00316 µM, first compound 1 µM
[5] = second compound 0.00316 µM, first compound 3.16 µM
[6] = second compound 0.00316 µM, first compound 10 µM
[7] = second compound 0.01 µM, first compound 0.0316 µM
[8] = second compound 0.01 µM, first compound 0.1 µM
[9] = second compound 0.01 µM, first compound 0.316 µM
[10] = second compound 0.01 µM, first compound 1 µM
[11] = second compound 0.01 µM, first compound 3.16 µM
[12] = second compound 0.01 µM, first compound 10 µM
[13] = second compound 0.0316 µM, first compound 0.0316 µM
[14] = second compound 0.0316 µM, first compound 0.1 µM
[15] = second compound 0.0316 µM, first compound 0.316 µM
[16] = second compound 0.0316 µM, first compound 1 µM
[17] = second compound 0.0316 µM, first compound 3.16 µM
[18] = second compound 0.0316 µM, first compound 10 µM
[19] = second compound 0.1 µM, first compound 0.0316 µM
[20] = second compound 0.1 µM, first compound 0.1 µM
[21] = second compound 0.1 µM, first compound 0.316 µM
[22] = second compound 0.1 µM, first compound 1 µM
[23] = second compound 0.1 µM, first compound 3.16 µM
[24] = second compound 0.1 µM, first compound 10 µM
[25] = second compound 0.316 µM, first compound 0.0316 µM
[26] = second compound 0.316 µM, first compound 0.1 µM
[27] = second compound 0.316 µM, first compound 0.316 µM
[28] = second compound 0.316 µM, first compound 1 µM
[29] = second compound 0.316 µM, first compound 3.16 µM
[30] = second compound 0.316 µM, first compound 10 µM
[31] = second compound 1 µM, first compound 0.0316 µM
[32] = second compound 1 µM, first compound 0.1 µM
[33] = second compound 1 µM, first compound 0.316 µM
[34] = second compound 1 µM, first compound 1 µM
[35] = second compound 1 µM, first compound 3.16 µM
[36] = second compound 1 µM, first compound 10 µM
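Also: spheroids exposed to agents for 7 days before the viability read.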

Q: Which results are given for `CC1(C)CCC(CN2CCN(c3ccc(C(=O)NS(=O)(=O)c4ccc(NCC5CCOCC5)c([N+](=O)[O-])c4)c(Oc4cnc5[nH]ccc5c4)c3)CC2)=C(c2ccc(Cl)cc2)C1` + CC(Nc1ccc2c(c1)OCCn1cc(N3C(=O)OCC3C(F)F)nc1-2)C(N)=O?
A: IC50 (second compound 0.00316 µM): 5.33 µM; IC50 (second compound 0.01 µM): 4.58 µM; IC50 (second compound 0.0316 µM): 3.77 µM; IC50 (second compound 0.1 µM): < 0.0316 µM; IC50 (second compound 0.316 µM): < 0.0316 µM; IC50 (second compound 1 µM): < 0.0316 µM; viability, T/C [1]: 83.5%; viability, T/C [2]: 61.8%; viability, T/C [3]: 97.3%; viability, T/C [4]: 107%; viability, T/C [5]: 90.2%; viability, T/C [6]: 4.2%; viability, T/C [7]: 86.6%; viability, T/C [8]: 74.8%; viability, T/C [9]: 87.8%; viability, T/C [10]: 82.8%; viability, T/C [11]: 71.8%; viability, T/C [12]: 3.91%; viability, T/C [13]: 66.7%; viability, T/C [14]: 51.6%; viability, T/C [15]: 65.5%; viability, T/C [16]: 65.4%; viability, T/C [17]: 57.8%; viability, T/C [18]: 5.24%; viability, T/C [19]: 29.4%; viability, T/C [20]: 36.4%; viability, T/C [21]: 41.5%; viability, T/C [22]: 45.8%; viability, T/C [23]: 47.5%; viability, T/C [24]: 2.96%; viability, T/C [25]: 21.2%; viability, T/C [26]: 22.1%; viability, T/C [27]: 22.1%; viability, T/C [28]: 25.4%; viability, T/C [29]: 26.4%; viability, T/C [30]: 2.64%; viability, T/C [31]: 17.2%; viability, T/C [32]: 13%; viability, T/C [33]: 15.3%; viability, T/C [34]: 14.3%; viability, T/C [35]: 21.6%; viability, T/C [36]: 1.47%

Q: With `C[C@@H](NC(=O)c1ncnc(N)c1Cl)c1ncc(C(=O)Nc2cc(C(F)(F)F)c(Cl)cn2)s1` + CC(Nc1ccc2c(c1)OCCn1cc(N3C(=O)OCC3C(F)F)nc1-2)C(N)=O as the molecule, how does the IC50 (second compound 0.00316 µM) read?
A: Its IC50 is > 10 µM.

Q: And the IC50 (second compound 0.01 µM)?
A: Its IC50 is > 10 µM.

Q: And the IC50 (second compound 0.0316 µM)?
A: The IC50 was 6.34 µM.

Q: And the IC50 (second compound 0.1 µM)?
A: The IC50 was 0.366 µM.

Q: And the IC50 (second compound 0.316 µM)?
A: Its IC50 is < 0.0316 µM.

Q: And the IC50 (second compound 1 µM)?
A: The IC50 was < 0.0316 µM.

Q: What about the viability, T/C [1] of the same molecule?
A: Its viability, T/C is 86.3%.

Q: What about the viability, T/C [2] of the same molecule?
A: Its viability, T/C is 78.3%.

Q: What about the viability, T/C [3] of the same molecule?
A: The viability, T/C was 88.9%.

Q: And the viability, T/C [4]?
A: The viability, T/C was 99.8%.

Q: What about the viability, T/C [5] of the same molecule?
A: The viability, T/C was 80%.

Q: What about the viability, T/C [6] of the same molecule?
A: Its viability, T/C is 70.8%.

Q: And the viability, T/C [7]?
A: The viability, T/C was 81.2%.

Q: What about the viability, T/C [8] of the same molecule?
A: The viability, T/C was 89.4%.

Q: What about the viability, T/C [9] of the same molecule?
A: Its viability, T/C is 74.6%.

Q: And the viability, T/C [10]?
A: The viability, T/C was 86.2%.

Q: What about the viability, T/C [11] of the same molecule?
A: Its viability, T/C is 70.6%.

Q: And the viability, T/C [12]?
A: Its viability, T/C is 63.6%.

Q: And the viability, T/C [13]?
A: The viability, T/C was 72.2%.

Q: And the viability, T/C [14]?
A: Its viability, T/C is 73.6%.

Q: What about the viability, T/C [15] of the same molecule?
A: Its viability, T/C is 65.3%.

Q: And the viability, T/C [16]?
A: Its viability, T/C is 58.8%.

Q: And the viability, T/C [17]?
A: The viability, T/C was 55.4%.

Q: And the viability, T/C [18]?
A: The viability, T/C was 47.1%.

Q: What about the viability, T/C [19] of the same molecule?
A: Its viability, T/C is 42.4%.

Q: What about the viability, T/C [20] of the same molecule?
A: Its viability, T/C is 49.2%.

Q: What about the viability, T/C [21] of the same molecule?
A: Its viability, T/C is 61.8%.

Q: And the viability, T/C [22]?
A: Its viability, T/C is 42.3%.

Q: And the viability, T/C [23]?
A: The viability, T/C was 36.7%.

Q: And the viability, T/C [24]?
A: The viability, T/C was 32.3%.

Q: What about the viability, T/C [25] of the same molecule?
A: The viability, T/C was 26.1%.

Q: What about the viability, T/C [26] of the same molecule?
A: The viability, T/C was 22.4%.

Q: And the viability, T/C [27]?
A: The viability, T/C was 26.1%.

Q: What about the viability, T/C [28] of the same molecule?
A: The viability, T/C was 27.4%.

Q: And the viability, T/C [29]?
A: Its viability, T/C is 27.7%.

Q: What about the viability, T/C [30] of the same molecule?
A: Its viability, T/C is 17.9%.

Q: And the viability, T/C [31]?
A: Its viability, T/C is 18.2%.

Q: And the viability, T/C [32]?
A: Its viability, T/C is 15.2%.

Q: What about the viability, T/C [33] of the same molecule?
A: The viability, T/C was 16.3%.

Q: What about the viability, T/C [34] of the same molecule?
A: The viability, T/C was 16.9%.

Q: And the viability, T/C [35]?
A: The viability, T/C was 16.6%.

Q: What about the viability, T/C [36] of the same molecule?
A: The viability, T/C was 12.5%.
